According to US8252832B2, “Kinesin inhibitors as cancer therapeutics” (Novartis AG, priority 2007, dated 2012):
Where two headings read alike, the source gives them in different places.

Experiments:
Experiment in all cases: CellTiter-Glo, hematologic malignancy panel
Type in all cases: cell-based, human
RL = conditions: NHL; for GI50: Homo sapiens
Description: (§1) Identification of tumor types that are the most sensitive to the KSP inhibitors of the present invention can be accomplished using an unbiased approach that uses several cell-based assays. The assays chosen were as follows: • CellTiter-Glo®. This is an assay designed to measure ATP concentration in a cell culture, and can be correlated to cell number. Briefly CellTiter-Glo® (Promega Corporation) is a homogeneous method using the single CellTiter-Glo® reagent to detect ATP wherein ATP in the assay drives the activity of a thermostable luciferase to create a luminescent signal which can then be measured and correlated with the number of viable cells. Briefly, for adherent cells, 1,000 to 5,000 cells/well were plated in 96-well plates (100 μl/well) and let to adhere for 24 hours before being treated with drug. For non-adherent cells, 1,000 to 10,000 cells/well were plated in 96-well plates (100 μl/well) and immediately treated with drug. Drug dilutions were prepared in DMSO at 1000 times the final concentration. These dilutions were then diluted 1/100 in growth media before being added to the cells (11 μl/well) to achieve the desired final concentration. After 48 h in a 37° C. tissue culture incubator, the plates were processed for the CellTiter-Glo®assay according to the manufacturer's instructions. Protocol for a 72 hour cell proliferation assay: The 72 hour assay was performed the same way as the 48 hour assay except for the following modifications: For adherent cells, 500 to 5,000 cells/well were plated in 96-well plates (90 μl/well cell growth media) and left to adhere for 24 hours before being treated with drug. For non-adherent cells, 1,000 to 10,000 cells/well were plated in 96-well plates (90 μl/well cell growth media) and immediately treated with drug. Data values presented represent the concentration of test compound required for a 50% reduction in growth. • LDH release. The Cytotoxicity Detection KitPLUS (LDH) assay (Roche Diagnostics, Manheim, Germany) measures the amount of LDH released in the media by dying cells; LDH catalyzes the conversion of lactate into pyruvate. The enzymatic reaction is coupled to a chemical reaction that uses a tetrazolium salt to form a formazan that is red and can be detected by its absorbance at 490 nm. This assay measures the amount of cell death after drug treatment. Cells were plated at 10,000 cells/well in 96-well plates (100 μl/well). Adherent cells were let to adhere for 24 hours before being treated with drug, whereas non-adherent cells were immediately treated with drug. Drug dilutions were prepared in DMSO at 1000 times the final concentration. These dilutions were then diluted 1/100 in growth media before being added to the cells (11 μl/well) to achieve the desired final concentration. After 48 h in a 37° C. tissue culture incubator, the plates were processed for the Cytotoxicity Detection KitPLUS (LDH) assay according to the manufacturer's instructions. The media only values were subtracted from all the data points before analysis. Data values presented correspond to the compound concentration wherein LDH output is at half maximal level. • Caspase-Glo® 3/7. The Caspase-Glo® 3/7 Assay (Promega Corporation) is a homogeneous luminescent assay that measures caspase-3/7 activities. The assay provides a proluminescent caspase-3/7 DEVD-aminoluciferin substrate and a thermostable luciferase in a reagent optimized for caspase-3/7 activity, luciferase activity and cell lysis. Adding the single Caspase-Glo® 3/7 Reagent results in cell lysis, followed by caspase cleavage of the substrate. This liberates free aminoluciferin, which is consumed by the luciferase, generating a luminescent signal. The signal is proportional to caspase-3/7 activity. Data values presented correspond to the compound concentration wherein caspase 3/7 activity is at half maximal level. […]

MV4; 11 = conditions: AML; for GI50: Homo sapiens
Description: as §1

MV4; 11Luc = conditions: AML; for GI50: Homo sapiens
Description: as §1

KMS11-Luc = conditions: MM; for GI50: Homo sapiens
Description: as §1

[1] = GI50 in nM, read-out: Log(GI50) (converted)

How did the GI50 (RL; [1]) turn out when `CC(C)(C)[C@H](c1nc(-c2cc(F)ccc2F)cn1Cc1ccccc1)N(CC[C@H](N)CF)C(=O)CO` [Compound IIa] was run?
The GI50 was 20 nM.

And the GI50 (RL; read-out: GI50)?
Its GI50 is 20 nM.

And the “Differential vs mean Log(GI50)” value (RL)?
The value was −1.771.

And the “Differential vs mean Log(GI50)” value (MV4; 11)?
Its value is 0.644.

What about the GI50 (MV4; 11; [1]) of the same compound?
Its GI50 is 0.0769 nM.

What about the GI50 (MV4; 11; read-out: GI50) of the same compound?
The GI50 was 0.08 nM.

And the “Differential vs mean Log(GI50)” value (MV4; 11Luc)?
The value was 0.509.

And the GI50 (MV4; 11Luc; [1])?
The GI50 was 0.105 nM.

And the GI50 (MV4; 11Luc; read-out: GI50)?
Its GI50 is 0.11 nM.

What about the GI50 (KMS11-Luc; [1]) of the same compound?
The GI50 was 0.29 nM.

What about the GI50 (KMS11-Luc; read-out: GI50) of the same compound?
Its GI50 is 0.29 nM.

What about the “Differential vs mean Log(GI50)” value (KMS11-Luc) of the same compound?
Its value is 0.068.
